This note sets out measurements from PubChem BioAssay (NCI).

Test systems include CCRF-CEM leukemia; HT29 colon; MDA-MB-231 breast; SF-268 CNS; SR leukemia; UACC-62 melanoma; UO-31 renal; HOP-92 NSCLC.
Assay in all cases: NCI-60 cell line screen, 48 h

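96-well plates; 48 h exposure; 5 concentrations. Endpoints by linear interpolation between flanking doses. Not reached: highest tested concentration assigned. The concentration for full growth arrest is given as TGI.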

Take `CCOC(=O)c1c(NS(=O)(=O)c2ccccc2)sc2c1CCCC2`: the TGI with CCRF-CEM leukemia, with HT29 colon, in the assay on MDA-MB-231 breast, in the assay with SF-268 CNS, with SR leukemia and in the assay on UACC-62 melanoma was greater than 100 µM in each case. Also, the TGI in the assay on UO-31 renal is greater than 100 µM.
In the case of `O=C(OC[C@H]1C[C@H]2C(=O)OCCC[C@H]2O1)c1ccccc1`, the TGI in the assay with CCRF-CEM leukemia, with HOP-92 NSCLC, with HT29 colon, in the assay on MDA-MB-231 breast, in the assay on SF-268 CNS and in the assay on SR leukemia was greater than 100 µM in each case. For the same compound, the TGI in the assay with UACC-62 melanoma and in the assay on UO-31 renal was greater than 100 µM each time.
As to `COc1ccc2nc(-c3ccc(N)cc3)sc2c1`, the TGI with CCRF-CEM leukemia, in the assay on HOP-92 NSCLC, with HT29 colon, with MDA-MB-231 breast, with SF-268 CNS and with SR leukemia was greater than 100 µM each time. The TGI with UACC-62 melanoma and in the assay with UO-31 renal was greater than 100 µM throughout.
On to `O=C1c2ccccc2CC12Cc1ccc3c(c1C2=O)CCCC3` (stereo unspecified), for which the TGI is greater than 100 µM in the assay on CCRF-CEM leukemia; greater than 100 µM with HT29 colon; 86 µM in the assay on MDA-MB-231 breast; greater than 100 µM in the assay on SF-268 CNS; 6.56 µM with SR leukemia; greater than 100 µM in the assay with UACC-62 melanoma. In the assay with UO-31 renal, the TGI is greater than 100 µM.
For the compound `Cc1ccc2c(c1)CC1(Cc3cc(C)ccc3C1=O)C2=O`, the TGI in the assay on CCRF-CEM leukemia, in the assay with HOP-92 NSCLC, in the assay on HT29 colon, with MDA-MB-231 breast, in the assay on SF-268 CNS and in the assay with SR leukemia was greater than 100 µM in each case. In the assay on UO-31 renal, the TGI is greater than 100 µM.
As for `Cc1ccc(-c2ccc3c(c2)Sc2ccccc2O3)n1C`, the TGI was 3.95 µM in the assay with CCRF-CEM leukemia; greater than 100 µM in the assay with HOP-92 NSCLC; greater than 100 µM with MDA-MB-231 breast; greater than 33.9 µM with SF-268 CNS; greater than 100 µM in the assay with SR leukemia; greater than 68.5 µM with UO-31 renal.
For `CSC(SC)=C(C#N)C(=O)Nc1ccc(Cl)cc1`, the TGI is 74.9 µM with CCRF-CEM leukemia; greater than 100 µM with HT29 colon; greater than 100 µM in the assay with MDA-MB-231 breast; greater than 100 µM with SF-268 CNS; greater than 100 µM with SR leukemia; greater than 100 µM in the assay with UACC-62 melanoma. For the same compound, in the assay on UO-31 renal, the TGI was 65.2 µM.
On to `C=CCSC1=N/C(=C\c2ccc(C)cc2)C(=O)N1CC=C`, for which the TGI was 57.5 µM in the assay on HOP-92 NSCLC; 34.1 µM in the assay with HT29 colon; greater than 100 µM with MDA-MB-231 breast; greater than 100 µM in the assay with SF-268 CNS; 29.4 µM with SR leukemia; greater than 100 µM in the assay with UACC-62 melanoma. Further, the TGI with UO-31 renal came to 84.4 µM.
`CCOC(=O)/C(C(=O)c1ccc[nH]1)=C1/CCCN1C`: the TGI with CCRF-CEM leukemia, with HT29 colon, with MDA-MB-231 breast, in the assay on SF-268 CNS, in the assay on SR leukemia and in the assay on UACC-62 melanoma was greater than 100 µM in each case. Besides, in the assay on UO-31 renal, the TGI is greater than 100 µM.
Turning to `O=C1c2cccc3cc([N+](=O)[O-])cc(c23)C(=O)N1c1ccc(OCCN2CCCC2)cc1`, the TGI was 73.5 µM in the assay with CCRF-CEM leukemia; greater than 100 µM with HOP-92 NSCLC; 28.3 µM in the assay on HT29 colon; greater than 100 µM in the assay with MDA-MB-231 breast; greater than 100 µM in the assay on SF-268 CNS; 73.2 µM with SR leukemia. For the same compound, the TGI in the assay with UO-31 renal came to 27.1 µM.
Take `CC1(C)OCC(/C=C\C(O)CC2(C)OCCO2)CO1` (stereo unspecified): the TGI with HOP-92 NSCLC, in the assay on HT29 colon, in the assay on MDA-MB-231 breast, in the assay on SF-268 CNS, with SR leukemia and in the assay on UACC-62 melanoma was greater than 100 µM throughout. Besides, in the assay with UO-31 renal, the TGI is greater than 100 µM.
Consider `N#CCCN(C(=O)Nc1ccc(NC(=O)N(CCC#N)c2ccccc2)cc1)c1ccccc1`, for which the TGI with HT29 colon, in the assay on MDA-MB-231 breast, in the assay on SF-268 CNS, with SR leukemia, with UACC-62 melanoma and in the assay on UO-31 renal was greater than 100 µM throughout.
`CN(C)CCCn1c(-c2ccc(Br)cc2)csc1=Nc1ccccc1`: the TGI in the assay with CCRF-CEM leukemia was greater than 100 µM; in the assay on HOP-92 NSCLC, greater than 100 µM; in the assay with MDA-MB-231 breast, greater than 100 µM; in the assay on SF-268 CNS, 33.6 µM; in the assay with SR leukemia, 46.8 µM; with UACC-62 melanoma, 29.6 µM. In the assay with UO-31 renal, the TGI came to 30.2 µM.
With `O=C(O)c1ccccc1Sc1ccc(C=C2NC(=S)N(c3ccccc3)C2=O)s1`, the TGI in the assay with HT29 colon, in the assay with MDA-MB-231 breast, in the assay with SF-268 CNS, in the assay on SR leukemia, in the assay on UACC-62 melanoma and with UO-31 renal was greater than 100 µM throughout.
Take `Cc1ccc(NC(c2ccccc2)P(=O)(c2ccccc2)c2ccccc2)cc1` (stereo unspecified): the TGI is 67.4 µM in the assay with HOP-92 NSCLC; greater than 100 µM in the assay with HT29 colon; greater than 100 µM in the assay on MDA-MB-231 breast; greater than 100 µM in the assay on SF-268 CNS; greater than 100 µM in the assay on SR leukemia; greater than 100 µM in the assay with UACC-62 melanoma. The TGI with UO-31 renal was greater than 100 µM.
For the compound `CC(NC(CC12CC3CC(CC(C3)C1)C2)C(N)=O)c1ccccc1` (stereo unspecified), the TGI was 41.9 µM in the assay on CCRF-CEM leukemia; 48.1 µM with HT29 colon; greater than 100 µM with MDA-MB-231 breast; 61.2 µM in the assay with SF-268 CNS; 41.3 µM with SR leukemia; greater than 100 µM in the assay with UACC-62 melanoma. The same compound had a TGI in the assay on UO-31 renal of 51.4 µM.
Regarding `c1ccc(-c2cc(-c3ccccc3)nc(-c3ccncc3)c2)cc1`, the TGI in the assay with CCRF-CEM leukemia, in the assay on MDA-MB-231 breast, in the assay with SF-268 CNS, in the assay with SR leukemia, in the assay on UACC-62 melanoma and in the assay on UO-31 renal was greater than 100 µM each time.
With `C[N+]1(CC[N+]2(C)CCCC2c2cccnc2)CCCC1c1cccnc1` (stereo unspecified), the TGI with HOP-92 NSCLC, with HT29 colon, with MDA-MB-231 breast, in the assay with SF-268 CNS, in the assay with SR leukemia and in the assay on UACC-62 melanoma was greater than 100 µM in each case. Moreover, the TGI in the assay with UO-31 renal was greater than 100 µM.
Take `CCN(CC)C(=O)N[C@@H](CC(C)C)C(=O)NC`: the TGI with CCRF-CEM leukemia, with HT29 colon, with MDA-MB-231 breast, with SF-268 CNS, in the assay on SR leukemia and in the assay on UACC-62 melanoma was greater than 100 µM throughout. In the assay on UO-31 renal, this compound came in with a TGI greater than 100 µM.
`O=C(Cn1c(=O)oc2ccccc21)N(c1ccccc1)c1ccccc1`: the TGI with CCRF-CEM leukemia, with HT29 colon, with MDA-MB-231 breast, with SF-268 CNS, with SR leukemia and in the assay on UACC-62 melanoma was greater than 100 µM in each case. The compound further came in with a TGI in the assay on UO-31 renal greater than 100 µM.
`Clc1ccc(Cc2nc3cc(Cl)c(Cl)cc3n2CC2CCCN3CCCCC23)cc1` (stereo unspecified): the TGI is 24.9 µM in the assay with HOP-92 NSCLC; 13.1 µM in the assay on HT29 colon; 19.3 µM in the assay with MDA-MB-231 breast; 22.3 µM in the assay with SF-268 CNS; 15.1 µM with SR leukemia; 21.2 µM in the assay on UACC-62 melanoma. This compound returned a TGI with UO-31 renal of 1.6 µM.
`C#C[C@]1(O)CC[C@H]2[C@@H]3CCC4=C/C(=N/OC(=O)c5cccc6cc7ccccc7nc56)CC[C@@H]4[C@H]3CC[C@@]21CC`: the TGI with CCRF-CEM leukemia, with HOP-92 NSCLC, in the assay on HT29 colon, in the assay with MDA-MB-231 breast, with SF-268 CNS and with SR leukemia was greater than 100 µM throughout. Besides, the TGI in the assay on UACC-62 melanoma was greater than 100 µM.
`CC(=O)N(C(=O)CC(=O)N1N=C(C)C(N=Nc2cccc([N+](=O)[O-])c2)C1=O)c1ccc(Cl)cc1` (stereo unspecified): the TGI in the assay on CCRF-CEM leukemia, in the assay on HOP-92 NSCLC, in the assay on HT29 colon, in the assay with MDA-MB-231 breast, in the assay on SF-268 CNS and in the assay with SR leukemia was greater than 10 µM each time. In the assay on UACC-62 melanoma, this compound registered a TGI greater than 10 µM.
`CC(C)C(Sc1nc(N)nc2nc[nH]c12)C(=O)O` (stereo unspecified): the TGI with CCRF-CEM leukemia, with HT29 colon, in the assay with MDA-MB-231 breast, in the assay on SF-268 CNS, in the assay with SR leukemia and in the assay with UACC-62 melanoma was greater than 100 µM in each case. Besides, the TGI with UO-31 renal was greater than 100 µM.
On to `Cc1n[nH]c(=O)c2c3c([nH]c12)-c1ccccc1C3`, for which the TGI in the assay with CCRF-CEM leukemia, with HOP-92 NSCLC, in the assay with HT29 colon, in the assay with MDA-MB-231 breast, with SF-268 CNS and in the assay with SR leukemia was greater than 100 µM throughout. Besides, the TGI with UO-31 renal was greater than 100 µM.
With `O=C(NCC(O)COc1ccccc1)c1ccccc1O` (stereo unspecified), the TGI with CCRF-CEM leukemia, in the assay on HOP-92 NSCLC, with MDA-MB-231 breast, with SR leukemia, in the assay on UACC-62 melanoma and with UO-31 renal was greater than 100 µM each time.
`C(/C=C(\Nc1ccccc1)c1ccc2ccccc2c1)=Nc1ccccc1`: the TGI in the assay on CCRF-CEM leukemia worked out at 2.85 µM; in the assay with HOP-92 NSCLC it was 28.1 µM; with MDA-MB-231 breast, 4.1 µM; with SF-268 CNS, 29.5 µM; in the assay with SR leukemia it was 2.49 µM; with UACC-62 melanoma, 3.37 µM. Moreover, in the assay on UO-31 renal, the TGI stood at 15.8 µM.
